Laboratory results taken from ChEMBL document CHEMBL2424617, “Microwave-assisted synthesis and anticonvulsant activity of 5,6-bisaryl-1,2,4-triazine-3-thiol derivatives” (Med Chem Res, 2013).
The source made the active and inactive calls. No cut-off for these calls is given here.

Tests used:
Mus musculus [1] = test: Anticonvulsant activity in NMRI mouse assessed as […] of PTZ required to induce seizure at 100 mg/kg, ip after 30 mins (reference value: 31.5 +/- 4.4 mg/kg); type: functional
Mus musculus [2] = test: Neurotoxicity in NMRI mouse assessed as impairment of motor coordination at 100 mg/kg after 30 mins by rotarod test; type: toxicity, organism-based; set-up: dose 100 mg/kg; conditions: in vivo, 0.5 h
Mus musculus [3] = test: Neurotoxicity in NMRI mouse assessed as impairment of motor coordination at 100 mg/kg after 30 mins by chimney test; type: toxicity, organism-based; set-up: dose 100 mg/kg; conditions: in vivo, 0.5 h
Mus musculus [4] = test: Anticonvulsant activity in NMRI mouse assessed as […] of PTZ required to induce seizure at 12.5 mg/kg, ip after 30 mins (reference value: 31.5 +/- 4.4 mg/kg); type: functional
Mus musculus [5] = test: Neurotoxicity in NMRI mouse assessed as impairment of motor coordination at 12.5 mg/kg, ip after 30 mins by chimney test; type: toxicity, organism-based; set-up: dose 12.5 mg/kg, route intraperitoneal; conditions: in vivo, 0.5 h
Mus musculus [6] = test: Neurotoxicity in NMRI mouse assessed as impairment of motor coordination at 12.5 mg/kg, ip after 30 mins by rotarod test; type: toxicity, organism-based; set-up: dose 12.5 mg/kg, route intraperitoneal; conditions: in vivo, 0.5 h
Mus musculus [7] = test: Anticonvulsant activity in NMRI mouse assessed as protection against electroshock-induced seizure at 12.5 mg/kg, ip after 30 mins; type: functional; conditions: route intraperitoneal
Mus musculus [8] = test: Anticonvulsant activity in NMRI mouse assessed as protection against electroshock-induced seizure at 100 mg/kg after 30 mins; type: functional

| Structure (SMILES) | Activity (Mus musculus [1]) [mg/kg] | Activity (Mus musculus [2]) | Activity (Mus musculus [3]) | Activity (Mus musculus [4]) [mg/kg] | Activity (Mus musculus [5]) | Activity (Mus musculus [6]) | Activity (Mus musculus [7]) [%] | Activity (Mus musculus [8]) |
| --- | --- | --- | --- | --- | --- | --- | --- | --- |
| CSc1nnc(-c2ccc(C)cc2)c(-c2ccc(C)cc2)n1 | 39.4 | Non-toxic | Non-toxic | – | – | – | – | – |
| CSc1nnc(-c2ccc(F)cc2)c(-c2ccc(F)cc2)n1 | – | Non-toxic | 33% | – | – | – | – | – |
| Cc1ccc(-c2nnc(SCc3cccnc3)nc2-c2ccc(C)cc2)cc1 | 47 | Non-toxic | Non-toxic | – | – | – | – | – |
| Nc1nnc(-c2cccc(Cl)c2Cl)c(N)n1 [LAMOTRIGINE] | – | – | – | 72.9 | Non-toxic | Non-toxic | 100 | – |
| Sc1nnc(-c2ccc(Cl)cc2)c(-c2ccc(Cl)cc2)n1 | – | Non-toxic | Non-toxic | – | – | – | – | – |
| COc1ccc(-c2nnc(SCc3cccnc3)nc2-c2ccc(OC)cc2)cc1 | 41.5 | Non-toxic | Non-toxic | – | – | – | – | – |
| Cc1ccc(-c2nnc(S)nc2-c2ccc(C)cc2)cc1 | 40.4 | – | Non-toxic | – | – | – | – | – |
| Clc1ccc(-c2nnc(SCc3ccncc3)nc2-c2ccc(Cl)cc2)cc1 | 43 | – | Non-toxic | – | – | – | – | – |
| COc1ccc(-c2nnc(S)nc2-c2ccc(OC)cc2)cc1 | – | Non-toxic | Non-toxic | – | – | – | – | inactive |
| COc1ccc(-c2nnc(SC)nc2-c2ccc(OC)cc2)cc1 | 41.4 | Non-toxic | Non-toxic | – | – | – | – | – |
| CSc1nnc(-c2cccs2)c(-c2cccs2)n1 | 38.23 | Non-toxic | Non-toxic | – | – | – | – | – |
| Sc1nnc(-c2cccs2)c(-c2cccs2)n1 | 24.42 | Non-toxic | Non-toxic | – | – | – | – | – |
| Cc1ccc(-c2nnc(SCc3ccncc3)nc2-c2ccc(C)cc2)cc1 | 49.4 | Non-toxic | Non-toxic | – | – | – | – | 100% |
